Target: T1, T1R2 and T1R3 without G protein α-subunit (Mus musculus, UniProt Q925D8+Q925I4, E350G/G527D/I706N/P352R/R175Q)
T1 construct: expressed in transfected cells; host or cells: 293 cells, RCB 1637 (human embryonic kidney)
T1 sequence (Q925I4 20-843 R175Q/E350G/P352R/G527D): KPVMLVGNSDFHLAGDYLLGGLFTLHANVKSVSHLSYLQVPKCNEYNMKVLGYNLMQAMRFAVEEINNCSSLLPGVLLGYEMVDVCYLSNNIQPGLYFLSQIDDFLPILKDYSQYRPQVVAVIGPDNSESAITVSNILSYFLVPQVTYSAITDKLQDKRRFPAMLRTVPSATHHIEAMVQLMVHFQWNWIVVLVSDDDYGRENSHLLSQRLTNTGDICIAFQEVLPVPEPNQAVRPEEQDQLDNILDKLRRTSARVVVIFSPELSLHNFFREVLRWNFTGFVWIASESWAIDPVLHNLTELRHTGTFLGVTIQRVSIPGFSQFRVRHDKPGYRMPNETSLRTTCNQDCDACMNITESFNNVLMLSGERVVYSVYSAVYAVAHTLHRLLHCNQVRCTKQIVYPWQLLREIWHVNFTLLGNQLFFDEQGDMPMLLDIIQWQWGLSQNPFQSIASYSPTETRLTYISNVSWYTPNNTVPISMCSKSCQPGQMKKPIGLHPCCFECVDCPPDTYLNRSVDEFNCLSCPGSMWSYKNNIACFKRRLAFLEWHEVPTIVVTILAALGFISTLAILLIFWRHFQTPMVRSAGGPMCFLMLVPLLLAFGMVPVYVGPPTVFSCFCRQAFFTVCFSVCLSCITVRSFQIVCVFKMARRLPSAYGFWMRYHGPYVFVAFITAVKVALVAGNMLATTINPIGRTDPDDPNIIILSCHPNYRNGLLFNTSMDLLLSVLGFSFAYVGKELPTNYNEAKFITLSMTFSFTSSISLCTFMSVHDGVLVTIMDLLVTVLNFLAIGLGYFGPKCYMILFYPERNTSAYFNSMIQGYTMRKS
T1 sequence (Q925D8 21-858 I706N): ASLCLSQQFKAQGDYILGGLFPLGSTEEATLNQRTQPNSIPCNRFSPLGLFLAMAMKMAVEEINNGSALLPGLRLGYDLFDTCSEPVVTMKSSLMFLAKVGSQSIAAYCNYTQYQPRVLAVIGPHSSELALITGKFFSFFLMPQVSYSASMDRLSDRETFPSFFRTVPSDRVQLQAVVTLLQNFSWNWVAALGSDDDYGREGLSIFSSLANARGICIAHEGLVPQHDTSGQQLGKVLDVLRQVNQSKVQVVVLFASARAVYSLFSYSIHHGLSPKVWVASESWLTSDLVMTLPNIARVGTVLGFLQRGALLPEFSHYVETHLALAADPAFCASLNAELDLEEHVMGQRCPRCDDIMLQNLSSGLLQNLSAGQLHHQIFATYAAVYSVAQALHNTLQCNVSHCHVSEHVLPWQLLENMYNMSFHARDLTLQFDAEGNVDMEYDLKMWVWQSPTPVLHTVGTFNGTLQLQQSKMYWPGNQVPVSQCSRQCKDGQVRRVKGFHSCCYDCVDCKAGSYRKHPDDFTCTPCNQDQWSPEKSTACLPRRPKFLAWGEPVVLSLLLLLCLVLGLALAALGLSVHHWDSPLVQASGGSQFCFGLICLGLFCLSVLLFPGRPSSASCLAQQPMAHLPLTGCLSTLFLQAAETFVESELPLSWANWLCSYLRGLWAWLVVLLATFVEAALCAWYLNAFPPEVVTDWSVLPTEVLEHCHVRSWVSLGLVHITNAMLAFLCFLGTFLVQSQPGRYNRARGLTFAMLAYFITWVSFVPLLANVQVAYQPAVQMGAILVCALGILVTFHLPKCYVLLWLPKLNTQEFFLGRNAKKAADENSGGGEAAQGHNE
Assay: Intracellular calcium ion assay, 293 cells expressing T1R2 and T1R3 without G protein α-subunits
Assay type: cell-based
Settings: 293 cells: T1R2 + T1R3, no G protein α-subunit; 0.67 ml of 1 M saccharide solution added to 2 ml cell suspension

## OC[C@H]1O[C@H](O[C@H]2O[C@H](CO)[C@@H](O)[C@H](O)[C@H]2O)[C@H](O)[C@@H](O)[C@@H]1O [Trehalose]
  Influx of calcium ion: Negative

## OC[C@H]1O[C@@](CO)(O[C@H]2O[C@H](CO)[C@@H](O)[C@H](O)[C@H]2O)[C@@H](O)[C@@H]1O [Sucrose, reference compound]
  Influx of calcium ion: Negative

Source: patent publication US20050048508A1, “Trehalose receptor and method for detecting trehalose with the same” (KABUSHIKI KAISHA HAYASHIBARA SEIBUTSU KAGAKU KENKYUJO, priority 2002, published 2005)
